From patent publication US12145933B2, “Hemi (L)-tartrate forms of 3-({5-chloro-1-[3-(methylsulfonyl)propyl]-1H-indol-2-yl}methyl)-1-(2,2,2-trifluoroethy)-1,3-dihydro-2H-imidazo[4,5-C]pyridin-2-one and pharmaceutical compositions comprising the same” (Janssen Sciences Ireland Unlimited Company, priority 2020, dated 2024)
≈ marks a conversion by molar mass, not a printed value. Where “and” joins values, the source holds several entries; their conditions need not be identical. Equal entries are not always repeated. Entries after “also recorded” stand apart in the source; their conditions may differ. Where two headings read alike, the source gives them in different places.

Experiments:
Format in all cases: physicochemical
[1] = Long term storage of liquid aqueous suspension (disproportionation, polymorph conversion)
Method: A liquid aqueous suspension comprising Form 1 of the hemi (L)-tartrate form of rilematovir as described in Examples 10, 11, 14 or 15 was stored in a sealed glass vial at a temperature of 30° C., 40° C., and 50° C. Over a period of 8 months samples were taken and analysed (e.g. by XPRD or solid state ^19F-NMR spectroscopy).
FIG. 6 is the solid state ^19F-NMR spectrum of Form 1 having peaks at −70.004 ppm and −73.248 ppm. FIG. 7 is the solid state ^19F-NMR spectrum of Form 3 having a peak at −70.122 ppm.

[2] = Equilibrium (thermodynamic) solubility in fed state human intestinal fluids; settings: for solubility Conc / solubility at 24 h: Fed HR pool human intestinal fluids, 37° C., 24 hours; for solubility at 24 h: human, 37 °C, plasma or biological fluid, thermodynamic from solid
Method: Determination of the equilibrium solubility of rilematovir in its free base form and its hemi (L)-tartrate form in fed state human intestinal fluids.
The thermodynamic solubility of rilematovir and the hemi (L)-tartrate form of rilematovir was determined using human intestinal fluids obtained from human volunteers in fed state. The pools of human intestinal fluids were prepared from individual intestinal aspirates collected among healthy volunteers under fed state conditions. Fed HR (high responders) pools were build up from duodenal samples in the fed state from volunteers with a clear postprandial bile salt increase.
A small magnetic stirrer bar (about 5 mm in length) and 300 μl of the respective human intestinal fluids at 37° C. were added to the Eppendorf tubes containing an excess of test compound. The mixtures were vortexed for a few seconds and placed on a magnetic stirrer plate (100 rpm) at 37° C.
After 24 hours, the Eppendorf tubes were centrifuged for 5 minutes at 12000 rpm (to separate dissolved from non-dissolved material). 10 µl of the supernatant was diluted into 100 μl methanol), well mixed and centrifuged for 1 minute to separate precipitated protein fraction. The test compound was quantified in the resulting supernatant using UPLC-UV quantification.
The pH was measured at the end of the experiment for each condition (pHend in Table 1).

[3] = Kinetic solubility in biorelevant media (FaSSIF, FeSSIF) with and without HPMC E5; settings: for solubility kinetic at 30 min / solubility kinetic at 60 min / solubility kinetic at 120 min: thermodynamic from solid, as μg rilematovir/mL; for solubility kinetic at 30 min: read-out: kinetic solubility, concentration at 30 minutes; for solubility kinetic at 60 min: read-out: kinetic solubility, concentration at 60 minutes; for solubility kinetic at 120 min: read-out: kinetic solubility, concentration at 120 minutes
Method: The kinetic solubility of rilematovir and the hemi (L)-tartrate form of rilematovir in different biorelevant medium (FaSSIF and FeSSIF) in the presence or absence of HPMC E5 was analysed.
An excess amount of rilematovir or the hemi (L)-tartrate form of rilematovir was added to biorelevant medium (approximately 5 mg solid/mL medium was used).
The media were stirred at 150 rpm at a temperature of 37° C. Time-dependent measurements were performed by removing 10 mL aliquots after 30 minutes, 1 hour and 2 hours. Undissolved solid material in the aliquot was removed using a Whatman SPARTAN RC syringe filter (diameter: 30 mm; pore size: 0.2 μm). Afterwards, a suitable dilution was made in NMP/water 30/70; v/v to avoid precipitation. The concentration of rilematovir, or the hemi (L)-tartrate form of rilematovir, in solution was determined using UPLC-UV.

[4] = Intrinsic dissolution rate (IDR), μDISS Profiler; settings: for IDR: 37.0 ± 0.5° C., 100 rpm
Method: The intrinsic dissolution rate (IDR) describes how fast a compound is released from its solid-state form into solution. The intrinsic dissolution rate is defined as the rate of dissolution of a pure active pharmaceutical ingredient when surface area, stirring speed, pH and ionic-strength of the dissolution medium are kept constant. Thus, it is measured as the release of API from a flat and well-defined surface area into an aqueous solution at a given pH value. By exposing the surface area of a material to an appropriate dissolution medium while maintaining constant temperature, stirring rate, and pH, the intrinsic dissolution rate can be determined. Typically the intrinsic dissolution is expressed in terms of mg per minute per cm^2.
Intrinsic Dissolution Method Parameters:
Pellet Compression Parameters

[5] = aqueous with cosolvent or surfactant or cyclodextrin, FaSSIF pH 6.5, HPMC E5 1.39 mg/mL, 37° C.
[6] = aqueous with cosolvent or surfactant or cyclodextrin, FeSSIF pH 5.0, HPMC E5 1.39 mg/mL, 37° C.
[7] = FaSSIF pH 6.5, no HPMC E5, 37° C.
[8] = FeSSIF pH 5.0, no HPMC E5, 37° C.
[9] = FaSSIF with HPMC E5, aqueous with cosolvent or surfactant or cyclodextrin, FaSSIF pH 6.5, HPMC E5 1.39 mg/mL, 37° C.
[10] = FeSSIF with HPMC E5, aqueous with cosolvent or surfactant or cyclodextrin, FeSSIF pH 5.0, HPMC E5 1.39 mg/mL, 37° C.

In the case of `CS(=O)(=O)CCCn1c(Cn2c(=O)n(CC(F)(F)F)c3ccncc32)cc2cc(Cl)ccc21.O=C(O)C(O)C(O)C(=O)O` [hemi (L)-tartrate form of rilematovir], the “disproportionation in liquid aqueous suspension” value ([1]; sealed glass vial, 30° C., 40° C., 50° C., 8 months, XRPD or solid state 19F-NMR) is reported as “does not disproportionate; also recorded: no disproportionation has been observed”, the “polymorph conversion in liquid aqueous suspension” value ([1]; storage of aqueous suspension over time, XRPD and solid state 19F-NMR) is reported as “over time Form 1 converts into Form 3” and the “solubility Conc” value ([2]; single determinations, listed as hemi tartrate form) is reported as 122.93 µg/mL and 126.92 µg/mL. For the same compound, the “solubility in fed state human intestinal fluids relative to free base form” value ([2]; fed state human intestinal fluids) was “more than three times higher”, the solubility at 24 h ([2]; average of three, read-out: solubility Average) was 117 µg/mL and the solubility at 24 h ([2]; single determinations, read-out: solubility Conc) was 102 µg/mL. It also gave a solubility kinetic at 30 min [3, 5] of 108 µg/mL, a solubility kinetic at 60 min [3, 5] of 93.1 µg/mL and a solubility kinetic at 120 min [3, 5] of 75.9 µg/mL. It also gave a solubility kinetic at 30 min [3, 6] of 1010 µg/mL, a solubility kinetic at 60 min [3, 6] of 853 µg/mL and a solubility kinetic at 120 min [3, 6] of 689 µg/mL. The “kinetic solubility relative to free base” value ([3]; biorelevant media, absence of the suspending agent HPMC) was “three (in FaSSIF) to six (in FeSSIF) times higher”, the solubility kinetic at 30 min [3, 7] was 4.4 µg/mL and the solubility kinetic at 60 min [3, 7] was 3.4 µg/mL. The solubility kinetic at 120 min [3, 7] was 3 µg/mL, the solubility kinetic at 30 min [3, 8] was 82.8 µg/mL and the solubility kinetic at 60 min [3, 8] was 67.1 µg/mL. For the same compound, the solubility kinetic at 120 min [3, 8] was 58.6 µg/mL, the IDR ([4]; Medium: 0.01N HCl) was 147 μg/min/cm^2 and the IDR ([4]; Medium: Blank FaSSIF) was 5.45 μg/min/cm^2. The IDR ([4]; Medium: FASSIF) was 2.10 μg/min/cm^2 and the “intrinsic dissolution rate (IDR) compared with free base form” value ([4]; three biorelevant media) was “higher than the free base form of rilematovir”.

For `CS(=O)(=O)CCCn1c(Cn2c(=O)n(CC(F)(F)F)c3ccncc32)cc2cc(Cl)ccc21.CS(=O)(=O)CCCn1c(Cn2c(=O)n(CC(F)(F)F)c3ccncc32)cc2cc(Cl)ccc21.O=C(O)C(=O)O` [hemi oxalic co-crystal], the IDR ([4]; Medium: 0.01N HCl) was 32.77 μg/min/cm^2, the IDR ([4]; Medium: Blank FaSSIF) was 1.62 μg/min/cm^2 and the IDR ([4]; Medium: FASSIF) was 1.18 μg/min/cm^2.

With `CS(=O)(=O)CCCn1c(Cn2c(=O)n(CC(F)(F)F)c3ccncc32)cc2cc(Cl)ccc21` [rilematovir, 3-({5-chloro-1-[3-(methylsulfonyl)propyl]-1H-indol-2-yl}methyl)-1-(2,2,2-trifluoroethyl)-1,3-dihydro-2H-imidazo[4,5-c]pyridin-2-one] the “solubility Conc” value ([2]; single determinations, listed as free base) was 36.80 µg/mL and 32.50 µg/mL, the solubility at 24 h ([2]; fed state human intestinal fluids (Fed HR pool), average of three, read-out: solubility Average) was 34.4 µg/mL (≈ 68.7 µM) and the solubility at 24 h ([2]; fed state human intestinal fluids (Fed HR pool), single determinations, read-out: solubility Conc) was 34 µg/mL (≈ 67.8 µM). It also gave a solubility kinetic at 30 min [3, 9] of 1.2 µg/mL (≈ 2.4 µM), a solubility kinetic at 60 min [3, 9] of 1.3 µg/mL (≈ 2.6 µM) and a solubility kinetic at 120 min [3, 9] of 1.5 µg/mL (≈ 2.99 µM). It also gave a solubility kinetic at 30 min [3, 10] of 12.3 µg/mL (≈ 24.6 µM), a solubility kinetic at 60 min [3, 10] of 13.4 µg/mL (≈ 26.8 µM) and a solubility kinetic at 120 min [3, 10] of 13.9 µg/mL (≈ 27.7 µM). It also gave a solubility kinetic at 30 min [3, 7] of 1.1 µg/mL (≈ 2.2 µM), a solubility kinetic at 60 min [3, 7] of 1.1 µg/mL (≈ 2.2 µM) and a solubility kinetic at 120 min [3, 7] of 1.2 µg/mL (≈ 2.4 µM). The solubility kinetic at 30 min [3, 8] was 12.5 µg/mL (≈ 25 µM), the solubility kinetic at 60 min [3, 8] was 13.2 µg/mL (≈ 26.4 µM) and the solubility kinetic at 120 min [3, 8] was 13.7 µg/mL (≈ 27.3 µM). The IDR ([4]; Medium: 0.01N HCl) was 8.98 μg/min/cm^2, the IDR ([4]; Medium: Blank FaSSIF) was 3.06 μg/min/cm^2 and the IDR ([4]; Medium: FASSIF) was under 1 μg/min/cm^2.
